Legend:
[1] = system: HIV-1BAL strain infected M-MΦ; test: Cytopathy (MGC formation) of HIV-1 infected M-MΦ; format: cell-based, human; details: 30 μM, HIV-1BAL (FIG. 17)
Experimental: Formation of cell cluster and cell fusion was observed from the 2nd day of the incubation only in virus producing M-MΦ and formation of multinucleatic giant cells were recognized from the culture day 4–7 [refer to FIG. 2(A)]. On the other hand, in GM-MΦ without generation of virus, nomorphological changes were observed [refer to FIG. 2(B)].
M-MΦ was subjected to contact infection with HIV-1BAL strain for 2 hours, added 30 μM of EM, EM201, EM202, EM703 or CAM, incubated and observed the cell morphology.

[2] = system: HIV-1BAL strain in M type macrophage (M-MΦ) derived from human monocytes; test: Proliferation of HIV-1 in M-MΦ: p24 protein in culture supernatant by sandwich ELISA; format: cell-based; details: for suppression of viral generation (p24 in culture supernatant) in M-MΦ: 30 μM, HIV-1BAL, 14 days of culture, compared with DMSO control (FIG. 13); for viral proliferation at 300 μM in M-MΦ: also observed in DMSO control, ascribed to cytotoxicity of DMSO; for concentration dependence of suppressive action on HIV-1BAL in M-MΦ: various concentrations (FIG. 16)
Experimental: (§1) Macrophages derived from monocytes were prepared by culturing the recovered monocytes in the presence of M-CSF (macrophage colony-stimulating factor) (10^4 U/ml, provided by Morinaga Milk Co.), granulocytes and granulocyte-macrophage colony-stimulating factor, GM-CSF) (500 U/ml, provided by Japan Scheling Plough Co., Osaka, or purchased from R & S Genzyme-TECHNE Inc.) with RPMI1640 medium added with FCS10% (Nissui Seiyaku Co., Tokyo) for 7–8 days.
(§2) The macrophage prepared by differential induction of M-CSF from human monocytes is designated as M type macrophage (M type MΦ or M-MΦ) and the macrophage prepared by differential induction of GM-CSF from human monocytes is designated as GM type macrophage (GM type MΦ or GM-MΦ) Further, alveolar macrophage (alveolar MΦ or A-MΦ) was prepared as follows. Cells in the alveolar lavage liquid obtained from the alveolar lavage of healthy volunteers were recovered, suspended and adhered to plastics, then the non-adhered cells were washed out and the remained adhered cells were designated as the alveolar MΦ.
(§3) Infection of HIV-1 to macrophage was performed as follows. Macrophage directed viral strains, HIV-1JR-FL and HIV-1BAL, were infected for 2 hours in contact with M-MΦ, GM-MΦ and A-MΦ (adjusted to 2.5×10^5/well, Flacon No3043: Becton Dickinson Labware, Inc. U.S.)at low concentration (p24 antigen titer 50 ng/ml, TCID50=3000/ml virus to final concentration at 100 pg/ml), and non-adsorbed virus to the macrophage was washed out, and cultured with adding fresh medium. In case of the medium with M-MΦ, M-CSF was added (10^4 U/ml), and that of the medium with GM-MΦ, GM-CSF was added (500 U/ml).
(§4) Proliferation of virus was examined with the released viral particles in the culture supernatant after the infection by the sandwich ELISA using two types of anti-p24 antibody (Nu24 and 10B5^13). The following JAM62 and JAM65 were used as LTR (HIV long terminal repeat)-gap gene primer. The following JAM63 and JAM 64 were used as the internal primer for the nested PCR. • JAM62: • 5′-[…]-3′ (SEQ ID NO: 1) • JAM65: • 5′-[…]-3′ (SEQ ID NO: 2) • JAM63: • 5′-GTGTOACTCTGGTAACTAGAGATCC-3′ (SEQ ID NO: 3) • JAM64: • 5′-[…]-3′ (SEQ ID NO: 4) (1-4) Assay of Expression of Tyrosine Kinase Hck Protein and Transcription Factor C/EBPβ Protein
(§5) In order to show growth suppression effect of the present invention, among macrolide derivatives, EM, EM201, EM202, EM703, CAM, EM722, EM730, EM732, EM736, EM734, EM735, EM747, EM748, EM743, EM746, EM750 or EM751 was dissolved in DMSO with each 100 mM concentration, and used in dilution with the medium thereafter. A control group was M-MΦ treated only with DMSO used for dissolving macrolide derivatives.
(§6) M-MΦ and GM-M Φ were subjected to contact infection with HIV-1BAL strain for 2 hours, added 30 μM of EM, EM201, EM202, EM703, CAM,EM722, EM730, EM732, EM736, EM734, EM735, EM747, EM748, EM743, EM746, EM750 or EM751, incubated for 14 days and amount of p24 protein in the cultured supernatant was assayed in the time-dependent manner.

[3] = system: tyrosine kinase Hck protein; test: Expression of tyrosine kinase Hck protein in M-MΦ by Western blotting; format: cell-based, human; details: 30 μM, day 2 after HIV-1BAL infection, compared with DMSO control (FIG. 18)
Excerpt: (§7) Expression of tyrosine kinase Hck protein and transcription factor C/EBPβ protein in macrophage was examined after solubilizing the macrophage in SDS-PAGE sample buffer, performing 10% SDS-polyacrylamide electrophoresis, transferring the protein on the gel to immobilon P membrane (Millipore Inc. U.S.) and checking antibodies against these proteins by Western blotting. Antibody to tyrosine kinase Hck protein (N-30) and antibody to C/EBPβ (C-19) were purchased from Santacluse Inc. (U.S.). Western blotting was detected by Amersham ELC Regent (Amersham International plc, Buckinghamshire, UK). Strength of bands was expressed by PSL (photostimulating luminescence) value (A/mm^2).
(§8) These probes were dissolved in the serum free RPMI1640 medium, in which lipofectin (Life Technology Inc., U.S.) was dissolved at 5 μM concentration, at room temperature for 30 minutes, added with RPMI1640 medium, which contains 10% FCS, to the macrophage (final concentration 2 μM) and incubated at 37° C. for 24 hours. Thereafter, cells were washed with the medium, added the RPMI1640 medium containing 10% FCS without oligonucleotide, further cultured for 24 hours, and then infected with HIV-1.
Consequently, M-MΦ was subjected to contact infection with HIV-1BAL strain for 2 hours, added 30 μM of EM, EM201, EM202, EM703 or CAM, incubated and expression of tyrosine kinase Hck protein was observed on day 2 after the infection by Western blotting.

p38MAPK = test: Tyrosine phosphorylation (activation) of p38MAPK in HIV-1 infected M-MΦ by Western blotting; format: cell-based, human; details: 30 μM, day 2 of culture, HIV-1BAL infected M-MΦ, compared with DMSO (FIG. 19(A))
Experimental: (§9) P38MAPK and ERK1/2 activation were determined using P38MAPK antibody, anti-ERK1/2 antibody, anti-tyrosine phosphorylation P38MAPK antibody and anti-tyrosine phosphorylation ERK1/2 antibody (New England Biolabs, Inc. U.S.), and phosphorylation reaction of these molecules was determined by Western blotting.
Thirty μM of EM, EM201, EM202, EM703 or CAM were added to M-MΦ infected with HIV-1BAL strain, tyrosine phosphorylation of p38MAPK was detected on day 2 of the culture by Western blotting. […] In any groups, total amount of p38MAPK (total sum of phosphorylated and non-phosphorylated p38MARK) was equal.

[4] = system: HIV-1BAL strain in GM type macrophage (GM-MΦ) derived from human monocytes; test: Proliferation of HIV-1 in GM-MΦ: p24 protein in culture supernatant by sandwich ELISA; format: cell-based; details: for viral generation in GM-MΦ: 30 μM, HIV-1BAL, all assay points up to 14 days, similar to DMSO control (FIG. 14)
Experimental: as §1, §2, §3, §4, §5, §6

ERK1/2 = test: Tyrosine phosphorylation (activation) of ERK1/2 in HIV-1 infected M-MΦ by Western blotting; format: cell-based, human; details: 30 μM, HIV-1BAL infected M-MΦ, compared with DMSO (FIG. 19(B))
Experimental: as §9
In any groups, total amount of ERK1/2 (total sum of phosphorylated and non-phosphorylated p38MARK) was equal [refer to FIG. 19(B)].

[5] = system: transcription factor C/EBPβ protein; test: Expression of C/EBPβ protein in GM-MΦ by Western blotting; format: cell-based, human; details: oligonucleotide treated GM-MΦ (FIG. 11)
Excerpt: as §7, §8

CCC(O)C(C)(O)C1OC(=O)C(C)C(OC2CC(C)(OC)C(O)C(C)O2)C(C)C(OC2OC(C)CC(NC)C2O)C2(C)CC(C)=C(O2)C1C (stereo not shown) [EM703, de(3′-N-methyl)-8,9-anhydro-pseudoerythromycin A 6,9-hemiketal]
cytopathic effect (MGC formation) in HIV-1 infected M-MΦ [1]: no cytopathic effect such as MCG formation was observed | proliferation of virus in M-MΦ at 3 μM ([2]; 3 μM): inhibited almost completely the proliferation of virus | suppression of viral generation (p24 in culture supernatant) in M-MΦ [2]: almost no p24 was detected | viral proliferation at 300 μM in M-MΦ [2]: viral proliferation at 300 μM was observed | concentration dependence of suppressive action on HIV-1BAL in M-MΦ [2]: concentration dependent manner | expression of tyrosine kinase Hck protein in HIV-1 infected M-MΦ [3]: strongly suppressed | tyrosine phosphorylation of p38MAPK (p38MAPK): significantly decreased | viral generation in GM-MΦ [4]: almost no viral generation was recognized | tyrosine phosphorylation of ERK1/2 (ERK1/2): promotion of tyrosine phosphorylation of ERK1/2 was recognized

CCC1OC(=O)C(C)C(O[C@H]2C[C@@](C)(OC)[C@@H](O)[C@H](C)O2)C(C)C(O[C@@H]2O[C@H](C)C[C@H](N(C)C)[C@H]2O)C(C)(O)CC(C)C(=O)C(C)C(O)C1(C)O (stereo partly shown) [EM, reference compound]
cytopathic effect (MGC formation) in HIV-1 infected M-MΦ [1]: formation of MGC was slightly recognized | suppression of viral generation (p24 in culture supernatant) in M-MΦ [2]: suppression of viral generation was recognized, though not so strong | viral proliferation at 300 μM in M-MΦ [2]: viral proliferation at 300 μM was observed | concentration dependence of suppressive action on HIV-1BAL in M-MΦ [2]: exhibited suppression of viral production depending upon drug concentration | expression of tyrosine kinase Hck protein in HIV-1 infected M-MΦ [3]: the suppression of tyrosine kinase Hck protein was observed, though not so strong | tyrosine phosphorylation of p38MAPK (p38MAPK): recognized to decrease, though not so strong | viral generation in GM-MΦ [4]: almost no viral generation was recognized | tyrosine phosphorylation of ERK1/2 (ERK1/2): weakly recognized as same in the control group

C/EBPβ-S: Phosphorothioate-modified sense oligonucleotide probe of C/EBPβ, 5′-CCGCGTTCATOCAACOCCTG-3′ (SEQ ID NO: 9) (sense CCGCGTTCATGCAACGCCTG; all phosphorothioate, sugars by position and methylation of C not given here) [reference compound]
changes in expression of C/EBPβ in GM-MΦ [5]: not recognized | HIV-1 growth promotion (p24 in culture supernatant) in oligonucleotide pretreated GM-MΦ ([4]; HIV-1 infection after pretreatment (FIG. 12)): not recognized

— patent US7034005B2, “Use of agent for suppressing infection and proliferation of human immunodeficiency syndrome virus” (The Kitasato Institute, priority 2002, dated 2006)
